Results taken from patent US20190292167A1, “HETEROAROMATIC COMPOUNDS USEFUL FOR THE TREATMENT OF PROLIFERATIVE DISEASES” (Syros Pharmaceuticals, Inc., priority 2013, published 2019).
Where two headings read alike, the source gives them in different places.

Experiments:
[1] = test system: HL-60; assay: Inhibition of cell proliferation, CellTiter-Glo, 72 hour; format: cell-based; conditions: Homo sapiens, Blood cancer cell line, read-out: Inhibition of Proliferation HL60
[2] = test system: 143B; assay: as above; format: cell-based; conditions: Homo sapiens, Osteosarcoma cell line
[3] = biological target: T1, CDK7 (Homo sapiens, UniProt P50613); assay: Adapta kinase assay (Life Technologies) against CDK7, co-factors cyclin H and MNAT1; format: biochemical; conditions: read-out: CDK7 Inhibition
T1 construct: purchased Life Technologies (Adapta kinase assay service)
T1 sequence (P50613 whole entry): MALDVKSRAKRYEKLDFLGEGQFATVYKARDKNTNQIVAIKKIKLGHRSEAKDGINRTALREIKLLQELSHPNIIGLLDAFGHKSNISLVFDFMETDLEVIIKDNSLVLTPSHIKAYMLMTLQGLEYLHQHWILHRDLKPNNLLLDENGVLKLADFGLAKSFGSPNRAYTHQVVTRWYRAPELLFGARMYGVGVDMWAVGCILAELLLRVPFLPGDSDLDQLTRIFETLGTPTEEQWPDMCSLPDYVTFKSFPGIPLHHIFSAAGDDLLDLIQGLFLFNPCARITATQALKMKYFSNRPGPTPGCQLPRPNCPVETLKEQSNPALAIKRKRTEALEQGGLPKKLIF
T1 sequence (P51946 whole entry partner): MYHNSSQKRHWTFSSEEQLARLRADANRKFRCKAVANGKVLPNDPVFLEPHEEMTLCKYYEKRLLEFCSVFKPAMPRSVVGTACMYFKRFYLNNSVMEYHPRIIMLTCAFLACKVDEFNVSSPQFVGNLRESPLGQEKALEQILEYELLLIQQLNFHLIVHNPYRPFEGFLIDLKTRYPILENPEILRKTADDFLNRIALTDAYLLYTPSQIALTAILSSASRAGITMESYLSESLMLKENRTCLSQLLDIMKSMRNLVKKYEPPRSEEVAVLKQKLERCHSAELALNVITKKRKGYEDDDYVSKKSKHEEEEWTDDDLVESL
T1 sequence (P51948 whole entry partner): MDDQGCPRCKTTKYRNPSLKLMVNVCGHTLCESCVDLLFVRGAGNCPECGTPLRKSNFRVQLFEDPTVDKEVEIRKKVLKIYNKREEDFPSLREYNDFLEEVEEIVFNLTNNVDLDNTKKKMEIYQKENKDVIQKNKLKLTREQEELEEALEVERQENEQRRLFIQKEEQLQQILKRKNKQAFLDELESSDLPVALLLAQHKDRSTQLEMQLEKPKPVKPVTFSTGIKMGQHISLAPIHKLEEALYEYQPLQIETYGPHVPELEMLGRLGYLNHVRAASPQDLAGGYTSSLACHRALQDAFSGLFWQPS

[4] = test system: MCF-7; assay: Inhibition of cell proliferation, CellTiter-Glo, 72 hour; format: cell-based; conditions: Homo sapiens, MCF7, Breast Cancer/Breast cell line
[5] = test system: Jurkat; assay: as above; format: cell-based; conditions: Blood cancer cell line, 72 hour, read-out: Inhibition of Proliferation of Jurkat Cells
Procedure: The following cancer cell lines were tested with the media conditions indicated: […]

[6] = test system: T47D; assay: as above; format: cell-based; conditions: Homo sapiens, Breast Cancer/Breast cell line
[7] = test system: SAOS; assay: as above; format: cell-based; conditions: Osteosarcoma cell line
[8] = test system: RD-ES; assay: as above; format: cell-based; conditions: Ewing's Sarcoma cell line
Procedure: (§1) • Hs863T—DMEM (4 mM L-Glut, 4.5 g/L Glucose, 1 mM pyruvate, 1.5 g/l bicarb)+10% FBS • Hs822T—DMEM (4 mM L-Glut, 4.5 g/L Glucose, 1 mM pyruvate, 1.5 g/l bicarb)+10% FBS • A673—DMEM (4 mM L-Glut, 4.5 g/L Glucose, 1 mM pyruvate, 1.5 g/l bicarb)+10% FBS • SKES-1—McCoy's 5a Medium Modified (modified—1.5 mM L-glut, 2.2 g/L bicarb)+15% FBS • RD-ES—RPMI 1640+15% FBS.

[9] = test system: SKES-1; assay: as above; format: cell-based; conditions: Homo sapiens, SK-ES1, Ewing's Sarcoma cell line, read-out: Inhibition of Proliferation SK-ES
Procedure: as §1

[10] = test system: Hs822T; assay: as above; format: cell-based; conditions: Ewing's Sarcoma cell line
Procedure: as §1

[11] = test system: A673; assay: as above; format: cell-based; conditions: Homo sapiens, Ewing's Sarcoma cell line
Procedure: as §1

[12] = test system: Hs863T; assay: as above; format: cell-based; conditions: Ewing's Sarcoma cell line
Procedure: as §1

[13] = test system: MCF-10A; assay: as above; format: cell-based; conditions: Homo sapiens, Breast Cancer/Breast cell line, read-out: Inhibition of Proliferation MCF10A
[14] = test system: MDA-MB231; assay: as above; format: cell-based; conditions: Homo sapiens, MDA-MB-231, Breast Cancer/Breast cell line
[15] = test system: SKBR-3; assay: as above; format: cell-based; conditions: Homo sapiens, SK-BR-3, Breast Cancer/Breast cell line, read-out: Inhibition of Proliferation SKBR3
[16] = test system: hTERT-HME1; assay: as above; format: cell-based; conditions: Breast Cancer/Breast cell line
[17] = test system: MV4-11; assay: as above; format: cell-based; conditions: Homo sapiens, Blood cancer cell line
[18] = test system: MNNG-Hos Cl#5; assay: as above; format: cell-based; conditions: Osteosarcoma cell line
[19] = test system: THP-1; assay: as above; format: cell-based; conditions: Homo sapiens, Blood cancer cell line
[20] = test system: RS4-11; assay: as above; format: cell-based; conditions: Homo sapiens, Blood cancer cell line

CN(C)C/C=C/C(=O)Nc1ccc(C(=O)N2CC[C@@H](Nc3ncc(C#N)c(-c4c[nH]c5ccccc45)n3)C2)cc1 [Compound 103, (E)-N-(4-((R)-3-(5-cyano-4-(1H-indol-3-yl)pyrimidin-2-ylamino)pyrrolidine-1-carbonyl)phenyl)-4-(dimethylamino)but-2-enamide]
IC50 [1]: < 500 nM | IC50 [2]: > 5 µM | IC50 [3]: < 100 nM | IC50 [4]: > 5 µM | IC50 ([5]; Homo sapiens, Jurkat, 72 h): < 0.5 µM | IC50 [6]: > 5 µM | IC50 [7]: < 500 nM | IC50 [8]: < 500 nM | IC50 [9]: < 500 nM | IC50 [10]: > 5 µM | IC50 [11]: < 500 nM | IC50 [12]: > 5 µM | IC50 [13]: < 500 nM | IC50 [14]: < 500 nM | IC50 [15]: > 5000 nM | IC50 [16]: < 500 nM | IC50 [17]: < 500 nM | IC50 [18]: 500 to 5000 nM | IC50 [19]: < 500 nM | IC50 [20]: < 500 nM

CC(C)[C@]12O[C@H]1[C@@H]1O[C@]13[C@]1(O[C@H]1C[C@H]1C4=C(CC[C@@]13C)C(=O)OC4)[C@@H]2O [Triptolide, triptolide, reference compound]
IC50 [1]: < 500 nM | IC50 [2]: < 0.5 µM | IC50 [4]: < 0.5 µM | IC50 [6]: > 5 µM | IC50 [7]: < 500 nM | IC50 [8]: < 500 nM | IC50 [9]: < 500 nM | IC50 [10]: 0.5 to 5 µM | IC50 [11]: < 500 nM | IC50 [12]: > 5 µM | IC50 [13]: < 500 nM | IC50 [14]: < 500 nM | IC50 [15]: < 500 nM | IC50 [16]: < 500 nM | IC50 [17]: < 500 nM | IC50 [18]: < 500 nM | IC50 [19]: < 500 nM | IC50 [20]: < 500 nM

CN(C)C/C=C/C(=O)Nc1ccc(C(=O)N2CC[C@H](Nc3ncc(Cl)c(-c4c[nH]c5ccccc45)n3)C2)cc1 [Compound 101, (E)-N-(4-((S)-3-(5-chloro-4-(1H-indol-3-yl)pyrimidin-2-ylamino)pyrrolidine-1-carbonyl)phenyl)-4-(dimethylamino)but-2-enamide]
IC50 [1]: > 5000 nM | IC50 [2]: > 5 µM | IC50 [3]: 100 to 1000 nM | IC50 [4]: > 5 µM | IC50 ([5]; Homo sapiens, Jurkat, 72 h): 0.5 to 5 µM | IC50 [6]: > 5 µM | IC50 [7]: > 5000 nM | IC50 [8]: > 5000 nM | IC50 [9]: 500 to 5000 nM | IC50 [10]: > 5 µM | IC50 [11]: 500 to 5000 nM | IC50 [12]: > 5 µM | IC50 [13]: 500 to 5000 nM | IC50 [14]: > 5000 nM | IC50 [15]: > 5000 nM | IC50 [16]: 500 to 5000 nM | IC50 [17]: < 500 nM | IC50 [18]: > 5000 nM | IC50 [19]: > 5000 nM | IC50 [20]: 500 to 5000 nM

Cc1noc(C)c1-c1nc(NC2CCN(C(=O)c3ccc(NC(=O)/C=C/CN(C)C)cc3)CC2)ncc1Cl [Compound 121, (E)-N-(4-(4-((5-chloro-4-(3,5-dimethylisoxazol-4-yl)pyrimidin-2-yl)amino)piperidine-1-carbonyl)phenyl)-4-(dimethylamino)but-2-enamide]
IC50 [3]: > 1000 nM | IC50 ([5]; Homo sapiens, Jurkat, 72 h): 0.5 to 5 µM

Cc1cc(N)ccc1C(=O)N1CCC(Nc2ncc(Cl)c(-c3c[nH]c4ccccc34)n2)CC1 [Compound 63, (4-amino-2-methylphenyl)(4-(5-chloro-4-(1H-indol-3-yl)pyrimidin-2-ylamino)piperidin-1-yl)methanone]
IC50 [3]: 100 to 1000 nM | IC50 ([5]; Homo sapiens, Jurkat, 72 h): > 5 µM

CN1CC[C@H](c2c(O)cc(O)c3c(=O)cc(-c4ccccc4Cl)oc23)[C@H](O)C1 [Flavopiridol, flavopiridol, reference compound]
IC50 [1]: < 500 nM | IC50 [2]: 0.5 to 5 µM | IC50 [4]: 0.5 to 5 µM | IC50 [6]: > 5 µM | IC50 [7]: < 500 nM | IC50 [8]: < 500 nM | IC50 [9]: < 500 nM | IC50 [10]: > 5 µM | IC50 [11]: < 500 nM | IC50 [12]: > 5 µM | IC50 [13]: < 500 nM | IC50 [14]: < 500 nM | IC50 [15]: < 500 nM | IC50 [16]: < 500 nM | IC50 [17]: < 500 nM | IC50 [18]: 500 to 5000 nM | IC50 [19]: < 500 nM | IC50 [20]: < 500 nM

Nc1ccc(C(=O)N2CCC(Nc3ncc(Cl)c(-c4c[nH]c5ccccc45)n3)CC2)cc1F [Compound 55, (4-amino-3-fluorophenyl)(4-(5-chloro-4-(1H-indol-3-yl)pyrimidin-2-ylamino)piperidin-1-yl)methanone]
IC50 [3]: < 100 nM | IC50 ([5]; Homo sapiens, Jurkat, 72 h): 0.5 to 5 µM

Nc1ccc(C(=O)N2CC[C@@H](Nc3ncc(Cl)c(-c4c[nH]c5ccccc45)n3)C2)cc1 [Compound 35, (4-aminophenyl)((R)-3-(5-chloro-4-(1H-indol-3-yl)pyrimidin-2-ylamino)pyrrolidin-1-yl)methanone]
IC50 [3]: < 100 nM | IC50 ([5]; Homo sapiens, Jurkat, 72 h): 0.5 to 5 µM

Cc1nc(C)c(-c2nc(N[C@H]3CC[C@@H](NC(=O)c4ccc(NC(=O)/C=C/CN(C)C)cc4)C3)ncc2Cl)s1 (racemic) [Compound 128, N-((1R,3S)-3-((5-chloro-4-(2,4-dimethylthiazol-5-yl)pyrimidin-2-yl)amino)cyclopentyl)-4-((E)-4-(dimethylamino)but-2-enamido)benzamide and N-((1S,3R)-3-((5-chloro-4-(2,4-dimethylthiazol-5-yl)pyrimidin-2-yl)amino)cyclopentyl)-4-((E)-4-(dimethylamino)but-2-enamido)benzamide]
IC50 [3]: 100 to 1000 nM | IC50 ([5]; Homo sapiens, Jurkat, 72 h): 0.5 to 5 µM

COc1ccc(Cn2c(-c3ccc(NC(=O)/C=C/CN(C)C)cc3)nc3cc(Nc4ncc(Cl)c(-c5c[nH]c6ccccc56)n4)ccc32)cc1 [Compound 133, (E)-N-(4-(5-(5-chloro-4-(1H-indol-3-yl)pyrimidin-2-ylamino)-1-(4-methoxybenzyl)-1H-benzo[d]imidazol-2-yl)phenyl)-4-(dimethylamino)but-2-enamide]
IC50 [3]: 100 to 1000 nM | IC50 ([5]; Homo sapiens, Jurkat, 72 h): 0.5 to 5 µM

C=CC(=O)Nc1ccc(CNC(=O)[C@@H]2CNC[C@H](Nc3ncc(Cl)c(-c4c[nH]c5ccccc45)n3)C2)cc1 (relative stereo) [Compound 152, (+/−cis)-N-(4-acrylamidobenzyl)-5-((5-chloro-4-(1H-indol-3-yl)pyrimidin-2-yl)amino)piperidine-3-carboxamide]
IC50 [3]: < 100 nM | IC50 [5]: 0.5 to 5 µM

CN(C)C/C=C/C(=O)Nc1ccc(C(=O)N2[C@@H]3CC[C@H]2C[C@@H](Nc2ncc(Cl)c(-c4c[nH]c5ccccc45)n2)C3)cc1 [Compound 116, ((1R,3R,5S)-3-(5-chloro-4-(1H-indol-3-yl)pyrimidin-2-ylamino)-8-aza-bicyclo[3.2.1]octan-8-yl)(4-((E)-N-4-(dimethylamino)but-2-enamide)phenyl)methanone]
IC50 [3]: 100 to 1000 nM | IC50 ([5]; Homo sapiens, Jurkat, 72 h): 0.5 to 5 µM

CN(C)C/C=C/C(=O)Nc1ccc(C(=O)N2CCC(Nc3ncc(Cl)c(-c4c[nH]cn4)n3)CC2)cc1 [Compound 127, (E)-N-(4-(4-((5-chloro-4-(1H-imidazol-4-yl)pyrimidin-2-yl)amino)piperidine-1-carbonyl)phenyl)-4-(dimethylamino)but-2-enamide]
IC50 [3]: 100 to 1000 nM | IC50 ([5]; Homo sapiens, Jurkat, 72 h): > 5 µM

C=CC(=O)Nc1ccc(CNC(=O)[C@H]2C[C@H](Nc3ncc(Cl)c(-c4c[nH]c5ccccc45)n3)CN(C)C2)cc1 (relative stereo) [Compound 155, (+/−trans)-N-(4-acrylamidobenzyl)-5-((5-chloro-4-(1H-indol-3-yl)pyrimidin-2-yl)amino)-1-methylpiperidine-3-carboxamide]
IC50 [3]: 100 to 1000 nM | IC50 [5]: 0.5 to 5 µM

N#Cc1cnc(NC2CCN(C(=O)c3ccc(N)cc3)CC2)nc1-c1c[nH]c2ccccc12 [Compound 26, 2-(1-(4-aminobenzoyl)piperidin-4-ylamino)-4-(1H-indol-3-yl)pyrimidine-5-carbonitrile]
IC50 [3]: 100 to 1000 nM | IC50 ([5]; Homo sapiens, Jurkat, 72 h): 0.5 to 5 µM

CN(C)C/C=C/C(=O)NCCC(=O)Nc1cccc(Nc2ncc(Cl)c(-c3c[nH]c4ccccc34)n2)c1 [Compound 131, (E)-N-(3-(3-(5-chloro-4-(1H-indol-3-yl)pyrimidin-2-ylamino)phenylamino)-3-oxopropyl)-4-(dimethylamino)but-2-enamide]
IC50 [3]: 100 to 1000 nM | IC50 ([5]; Homo sapiens, Jurkat, 72 h): 0.5 to 5 µM
